Source: US4906638A (priority 1987, dated 1990)
Entries after “also recorded” stand apart in the source; their conditions may differ.

What was measured:
[1] = test system: [^3 H]dextromethorphan receptor; conditions: central nervous system site; cited from earlier work
[2] = test system: maximal electroshock seizures (tonic hindlimb extension); test: maximal electroshock (MES) procedure for mice, transauricular (Example I); format: in vivo; conditions: for % Mice Protected: 15 min before MES
Method: For combination studies two separate injections were administered. […] The absence of tonic hindlimb extension was taken as evidence for seizure protection.

[3] = rotorod-ataxia toxicity test (CNS side effects); conditions: mouse, in vivo
Text: Mice that were unable to maintain equilibrium for one continuous minute, given 3 opportunities were scored as ataxic.

Question: Which results are given for `NC(=O)N1c2ccccc2C=Cc2ccccc21` [carbamazepine, 5-H-dibenzepin-(5)-carboxamide]?
Answer: effect on [^3 H]dextromethorphan binding / binding to the dextromethorphan site (in words) [1]: did not inhibit or enhance; also recorded: do not inhibit or enhance binding; % Mice Protected ([2]; CBM 1 mg/kg alone): 0%; % Mice Protected ([2]; CBM 3 mg/kg alone): 0%; % Mice Protected ([2]; CBM 6 mg/kg alone): 25%; % Mice Protected ([2]; CBM 8 mg/kg alone): 50%; % Mice Protected ([2]; CBM 9 mg/kg alone): 75%; % Mice Protected ([2]; CBM 12 mg/kg alone): 100%; ED50 ([2]; CBM alone, 15 min): 7.2 mg/kg; TD50 at […] [3]: 44.8 mg/kg
